Results on 1 molecule are retold here after patent publication US10363230B2, “6-shogaol derivatives and activities thereof” (North Carolina Agricultural and Technical State University, priority 2017, dated 2019).

Entries after “also recorded” stand apart in the source; their conditions may differ.

Data set [1] can be described thus: Cysteine conjugates in mouse urine after oral gavage (LC/MS). Type of data set: in vivo. To be noted: oral gavage 200 mg/kg, urine collected in 24 h. The protocol: LC/MS analysis was carried out with a Thermo-Finnigan Spectra System, which consisted of an Accela high speed MS pump, an Accela refrigerated autosampler, and an LCQ Fleet ion trap mass detector (Thermo Electron, San Jose, Calif., United States of America) incorporated with an electrospray ionization (ESI) interface. A Gemini-NX C18 column (150 mm×4.6 mm i.d., 5 μm; Phenomenex, Torrance, Calif., United States of America) was used for separation at a flow rate of 0.3 mL/min. The column was eluted with 100% A (5% aqueous methanol with 0.2% formic acid) for 1 min, followed by linear increases in B (95% aqueous methanol with 0.2% formic acid) to 55% from 1 to 4 min, to 85% from 4 to 25 min, then to 100% B from 25 to 30 min, and then with 100% B from 30 to 35 min. The column was then re-equilibrated with 100% A for 5 min. The LC eluent was introduced into the ESI interface. The positive ion polarity mode was set for the ESI source with the voltage on the ESI interface maintained at approximately 4.6 kV. Nitrogen gas was used as the sheath gas and auxiliary gas. […] The mass range was measured from 100 to 800 m/z. […]
Enzymatic deconjugation of mouse urine was performed as described previously with slight modifications. […] The resulting suspension was centrifuged at 17,000 g for 5 min, and 10 μL of supernatant was analyzed directly by LC/MS.

Data set [2] relates to heme oxygenase-1 (HO-1). The data set can be described thus: Western blotting of HO-1 expression in CCD 841 CoN cells. The data set is classed as cell-based, human. Here is the method:
Human normal colonic epithelial cells (CCD 841 CoN) were grown in Eagle's Minimum Essential Medium with 10% fetal bovine serum and 1% penicillin/streptomycin, and maintained at 37° C. in a 100% humidified atmosphere of 5% CO2 and 95% air. Fresh growth medium was added to the cells every two days until confluent. Cells were planted in 145×20 mm flat-bottomed tissue culture dishes and growth to 70-80% confluence and then treated with compound 27 for various doses and time points. At the end of incubation period, cell lysates were prepared in ice-cold Cell Lysis Buffer (Cell Signaling, Danvers, Mass., United States of America) with 1% protease inhibitor cocktail and 1% phenylmethylsulfonyl fluoride (Sigma, St. Louis, Mo., United States of America). Protein concentrations were measured using BCA Protein Assay Kit (Thermo Scientific, Rockford, Ill., United States of America). […] The bound complexes were detected with SuperSignal Chemiluminescent Substract (Thermo Scientific, Rockford, Ill., United States of America). The immunoblot bands were quantified by densitometry analysis, and the ratio to β-actin was calculated and presented.
(Immunoblotting shows a protein as a band on a membrane.)

A short description of data set [3]: Biotransformation of xenobiotics in zebrafish embryos (LC/MS). Particulars: 5 μM in incubation medium, 8 hpf to 24 hpf. The data set is classed as in vivo. The protocol:
Fifty zebrafish embryos at the 8 hour-post-fertilization (hpf) stage were incubated at 28.5° C. in 0.3× Danieau's solution (19.3 mM NaCl, 0.23 mM KCl, 0.13 mM MgSO4, 0.2 mM Ca(NO3)2, 1.7 mM HEPES, pH 7.0) with or without 5 μM 18 and 25-27, respectively. At 24 hpf, embryos were dechorionated manually and the chorions were carefully removed one by one from the culture medium. The zebrafish embryos were harvested and kept at −80° C. till analyzed by LC/MS.
200 μL Sodium acetate buffer solution (pH 5.0) was added to 50 zebrafish embryos. Samples were homogenized for 90 s by an Omni Bead Ruptor Homogenizer (Kennesaw, Ga., United States of America). 10 μL 10% ascorbic acid and 300 μL sodium acetate buffer were added to the homogenates. The mixture was incubated in the presence of β-glucuronidase (250 U) and sulfatase (3 U) at 37° C. for 45 min, and then 600 μL MeOH with 1% acetic acid was added. The resulting mixture was vortexed for 30 s and then centrifuged at 17000 g for 10 min. The supernatant was removed and evaporated under a gentle stream of nitrogen. The residue was reconstituted in 150 μL 90% MeOH with 0.2% acetic acid (AA), and 10 μL was analyzed directly by LC/MS.
LC/MS analysis was carried out with a Thermo-Finnigan Spectra System, which consisted of an Accela high speed MS pump, an Accela refrigerated autosampler, and an LCQ Fleet ion trap mass detector (Thermo Electron, San Jose, Calif., United States of America) incorporated with an electrospray ionization (ESI) interface. A Gemini-NX C18 column (150 mm×4.6 mm i.d., 5 μm; Phenomenex, Torrance, Calif., United States of America) was used for separation at a flow rate of 0.3 mL/min. The column was eluted with 100% A (5% aqueous methanol with 0.2% formic acid) for 1 min, followed by linear increases in B (95% aqueous methanol with 0.2% formic acid) to 55% from 1 to 4 min, to 85% from 4 to 25 min, then to 100% B from 25 to 30 min, and then with 100% B from 30 to 35 min. The column was then re-equilibrated with 100% A for 5 min. The LC eluent was introduced into the ESI interface. The positive ion polarity mode was set for the ESI source with the voltage on the ESI interface maintained at approximately 4.6 kV. Nitrogen gas was used as the sheath gas and auxiliary gas. Optimized source parameters, including capillary temperature (260° C.), sheath gas flow rate (31 arbitrary units), auxiliary gas flow rate (16 units), tube lens (34 V), and capillary voltage 9 V, were tuned using authentic samples. The collision-induced dissociation (CID) was conducted with an isolation width 2 Da and normalized collision energy of 35 for MS^2. The mass range was measured from 100 to 800 m/z. Data acquisition was performed with Xcalibur version 2.0 (Thermo Electron, San Jose, Calif., United States of America).

As to `CCCCCCCC(=O)/C=C/c1ccc(O)c(O)c1` [Compound 27], the “Cysteine conjugates (metabolites) detected in mouse urine” value in data set [1] is “conjugate 36 and its reduced form 36a, three additional conjugates 37, 37a, and 37b”. Further, in data set [2] (CCD 841 CoN cells, 10 μM for 3, 6, 12 and 24 h, vs control, p<0.05 for all time points), the “HO-1 protein expression, time dependence” value is listed as “significantly increased HO-1 expression; also recorded: increased HO-1 expression in a time-dependent manner”. In addition, in data set [2] (CCD 841 CoN cells, 5, 10 and 20 μM for 24 h, vs untreated control, p<0.05 for all concentrations), the “HO-1 protein expression, dose dependence” value was “significantly increased HO-1 protein expression; also recorded: increased HO-1 expression in a dose-dependent manner”. Moreover, in data set [3], the “Cysteine conjugates (metabolites) detected in zebrafish embryos” value was “four cysteine conjugates 36, 36a, 37, and 37b”.
